≈ marks a conversion by molar mass, not a printed value. Where two headings read alike, the source gives them in different places.
Experiments:
Fusarium solani = assay: Expanded set of filamentous fungi, MIC broth microdilution (CLSI); type: cell-based; conditions: MIC at 50% inhibition
Scedosporium spp. = assay: as above; type: cell-based
Fusarium oxysporum = assay: as above; type: cell-based; conditions: MIC at 50% inhibition
C. albicans = assay: Expanded set of yeasts, MIC broth microdilution (CLSI); type: cell-based; conditions: MIC at 50% inhibition; for MIC50: Candida albicans
C. guilliiermondii = assay: as above; type: cell-based; conditions: MIC at 50% inhibition
Lomentospora prolificans = assay: Expanded set of filamentous fungi, MIC broth microdilution (CLSI); type: cell-based; conditions: isolate S2, MIC at 50% inhibition
Candida parapsilosis = assay: Expanded set of yeasts, MIC broth microdilution (CLSI); type: cell-based; conditions: MIC at 50% inhibition; for MIC50: Lodderomyces parapsilosis
[1] = tested on: Staphylococcus aureus (ATCC 43300); assay: Antibacterial MIC, broth microdilution (CLSI); type: cell-based; conditions: Staphylococcus aureus, ATCC43300; read-out: MIC80 S. aureus
Aspergillus fumigatus = assay: Expanded set of filamentous fungi, MIC broth microdilution (CLSI); type: cell-based
Blastomyces dermatitidis = assay: as above; type: cell-based
[2] = tested on: PolyAU double stranded RNA; assay: Fluorescence intercalator displacement (FID) assay, SYBR-safe probe; conditions: 20 μM compound, 30° C., lower % = stronger binding
Procedure, shortened: (§1)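 Probe displacement was measured at 30 °C in 1 mM phosphate pH 7.4 containing SybrSafe (12500-fold dilution), 3.76 ng/mL nucleic acid (salmon dsDNA or polyAU dsRNA) and 20 μM compound. Fluorescence loss is normalised between probe-only and probe-plus-nucleic-acid controls.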

[3] = tested on: Genomic double stranded DNA (salmon); assay: as above; conditions: 20 μM compound, 30° C., lower % = stronger binding
Procedure, shortened: as §1

[4] = tested on: Enterococcus faecalis (ATCC 51299); assay: Antibacterial MIC, broth microdilution (CLSI); type: cell-based; conditions: Enterococcus faecalis, ATCC51299; read-out: MIC80 E. faecalis
C. glabrata = assay: Expanded set of yeasts, MIC broth microdilution (CLSI); type: cell-based; conditions: Nakaseomyces glabratus, MIC at 50% inhibition
Paecilomyces variotii = assay: Expanded set of filamentous fungi, MIC broth microdilution (CLSI); type: cell-based; conditions: isolate MYA-3630, MIC at 50% inhibition
Aspergillus flavus = assay: as above; type: cell-based; conditions: MIC at 50% inhibition; for MIC50: Aspergillus flavus
C. krusei = assay: Expanded set of yeasts, MIC broth microdilution (CLSI); type: cell-based; conditions: Pichia kudriavzevii, ATCC6258; isolate ATCC 6258; MIC at 50% inhibition
C. auris = assay: as above; type: cell-based; conditions: MIC at 50% inhibition
Rhizopus arrhizus = assay: Expanded set of filamentous fungi, MIC broth microdilution (CLSI); type: cell-based
[5] = tested on: Escherichia coli (ATCC 25922); assay: Antibacterial MIC, broth microdilution (CLSI); type: cell-based; conditions: Escherichia coli, ATCC25922; read-out: MIC80 E. coli

CNC(=N)CCNC(=O)c1cc(NC(=O)c2cc(NC(=O)c3ccc(/C=C/c4cnc5ccccc5c4)cc3)cn2C)cn1C [Ia27, (E)-N-(3-imino-3-(methylamino)propyl)-1-methyl-4-(1-methyl-4-(4-(2-(quinolin-3-yl)vinyl)benzamido)-1H-pyrrole-2-carboxamido)-1H-pyrrole-2-carboxamide]
MIC50 (Fusarium solani; Fusarium solani, isolate F4): ≤ 1 µg/mL | MIC50 Fusarium solani (Fusarium solani; isolate DI19-284): *** (*** means MIC50 <= 1 μg/mL) | MIC50 (Scedosporium spp.; isolate S1, MIC at 50% inhibition): ≤ 1 µg/mL | MIC50 (Scedosporium spp.; isolate S3, MIC at 50% inhibition): ≤ 1 µg/mL | MIC50 (Fusarium oxysporum; Fusarium oxysporum, isolate F2): ≤ 1 µg/mL | MIC50 Fusarium oxysporum (Fusarium oxysporum; isolate F3): *** (*** means MIC50 <= 1 μg/mL) | MIC50 (C. albicans; isolate CA3): 1 to 8 µg/mL (≈ 1.66 to 13.3 µM) | MIC50 (C. albicans; isolate SC5314): 1 to 8 µg/mL (≈ 1.66 to 13.3 µM) | MIC50 C. albicans (C. albicans; isolate CA90028): ** (** means 1 μg/mL < MIC50 <= 8 μg/mL) | MIC50 (C. guilliiermondii; isolate Cgui1): 1 to 8 µg/mL (≈ 1.66 to 13.3 µM) | MIC50 C. guilliiermondii (C. guilliiermondii; isolate Cgui2): ** (** means 1 μg/mL < MIC50 <= 8 μg/mL) | MIC50 C. guilliiermondii (C. guilliiermondii; isolate Cgui3): ** (** means 1 μg/mL < MIC50 <= 8 μg/mL) | MIC50 (Lomentospora prolificans): ≤ 1 µg/mL | MIC50 (Candida parapsilosis; ATCC22019, isolate ATCC 22019, read-out: MIC50 Candida parapsilosis): 1 to 8 µg/mL (≈ 1.66 to 13.3 µM) | MIC50 (Candida parapsilosis; isolate CP1, read-out: MIC50 C. parapsilosis): 1 to 8 µg/mL (≈ 1.66 to 13.3 µM) | MIC50 C. parapsilosis (Candida parapsilosis; isolate CP2): ** (** means 1 μg/mL < MIC50 <= 8 μg/mL) | MIC50 C. parapsilosis (Candida parapsilosis; isolate CP3): ** (** means 1 μg/mL < MIC50 <= 8 μg/mL) | MIC80 [1]: < 5 µM | MIC50 (Aspergillus fumigatus; isolate AF293, MIC at 50% inhibition): ≤ 1 µg/mL | MIC50 (Aspergillus fumigatus; isolate DI15-106, MIC at 50% inhibition): ≤ 1 µg/mL | MIC50 (Aspergillus fumigatus; isolate DI15-116, MIC at 50% inhibition): ≤ 1 µg/mL | MIC50 (Aspergillus fumigatus; isolate DI19-187, MIC at 50% inhibition): ≤ 1 µg/mL | MIC50 (Aspergillus fumigatus; isolate DI19-230, MIC at 50% inhibition): ≤ 1 µg/mL | MIC50 (Aspergillus fumigatus; isolate DI19-231, MIC at 50% inhibition): ≤ 1 µg/mL | MIC50 (Aspergillus fumigatus; isolate DI19-232, MIC at 50% inhibition): ≤ 1 µg/mL | MIC50 (Aspergillus fumigatus; isolate DI19-233, MIC at 50% inhibition): ≤ 1 µg/mL | MIC50 (Aspergillus fumigatus; isolate DI19-234, MIC at 50% inhibition): ≤ 1 µg/mL | MIC50 (Aspergillus fumigatus; isolate DI19-236, MIC at 50% inhibition): ≤ 1 µg/mL | MIC50 (Aspergillus fumigatus; isolate DI19-237, MIC at 50% inhibition): ≤ 1 µg/mL | MIC50 (Aspergillus fumigatus; isolate DI20-95, MIC at 50% inhibition): ≤ 1 µg/mL | MIC50 (Aspergillus fumigatus; isolate DI20-103, MIC at 50% inhibition): ≤ 1 µg/mL | MIC50 (Blastomyces dermatitidis; isolate BD1, MIC at 50% inhibition): 1 to 8 µg/mL (≈ 1.66 to 13.3 µM) | MIC50 (Blastomyces dermatitidis; isolate BD2, MIC at 50% inhibition): 1 to 8 µg/mL (≈ 1.66 to 13.3 µM) | MIC50 (Blastomyces dermatitidis; isolate BD3, MIC at 50% inhibition): 8 to 32 µg/mL (≈ 13.3 to 53.1 µM) | % Normalised Fluorescence with polyAU RNA [2]: 17% | % Normalised Fluorescence with gDNA [3]: 13% | MIC80 [4]: < 5 µM | MIC50 (C. glabrata; isolate 05-62): ≤ 1 µg/mL | MIC50 (C. glabrata; isolate 05-761): ≤ 1 µg/mL | MIC50 (C. glabrata; isolate CG3): ≤ 1 µg/mL | MIC50 (Paecilomyces variotii): 1 to 8 µg/mL (≈ 1.66 to 13.3 µM) | MIC50 (Aspergillus flavus; ATCC204304, isolate ATCC 204304): ≤ 1 µg/mL | MIC50 (Aspergillus flavus; isolate Aflav2): ≤ 1 µg/mL | MIC50 Aspergillus flavus (Aspergillus flavus; isolate Aflav3): *** (*** means MIC50 <= 1 μg/mL) | MIC50 (C. krusei): ≤ 1 µg/mL | MIC50 (C. auris; Candidozyma auris, isolate DI17-47): 1 to 8 µg/mL (≈ 1.66 to 13.3 µM) | MIC50 C. auris (C. auris; isolate DI17-46): ** (** means 1 μg/mL < MIC50 <= 8 μg/mL) | MIC50 C. auris (C. auris; isolate DI17-48): ** (** means 1 μg/mL < MIC50 <= 8 μg/mL) | MIC50 (Rhizopus arrhizus; isolate 99-880, MIC at 50% inhibition): ≤ 1 µg/mL | MIC50 (Rhizopus arrhizus; isolate 99-892, MIC at 50% inhibition): ≤ 1 µg/mL | MIC50 (Rhizopus arrhizus; isolate RA3, MIC at 50% inhibition): 1 to 8 µg/mL (≈ 1.66 to 13.3 µM) | MIC80 [5]: > 100 µM
